# Source: paper PMC8445441, “Elucidating the mechanism by which synthetic helper peptides sensitize Pseudomonas aeruginosa to multiple antibiotics” (PLoS Pathogens, 2021)
# Read-outs that look alike come from different tables or passages of the source. Positions of bridges follow the written chain, without caps; N, C: chain ends. Non-standard residues stand in square brackets, D forms with d. Residues, ends and D or L forms follow the SMILES beside them. *: point of attachment. X1 = CC[C@H](C)CCCCC(=O)*; Dab = NCC[C@H](N)C(=O)O
# Assays:
# [1] = tested on: P. aeruginosa AUMC-Pa-3; experiment: microbe, parasite or virus in culture; conditions: strain AUMC-Pa-3; for FICI: antibiotic + D-11 (MICb/MICbc 128/4); for MICa: MIC of the antibiotic: antibiotic alone; for MICa: MIC of the antibiotic / MICac: MIC of the antibiotic in the combination: unit not given; for MICac: MIC of the antibiotic in the combination: with D-11 at MICbc 4
# Outline: (§1)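 CLSI broth dilution; MHB; ~1 × 10^6 CFU/mL suspension mixed equal volume with drug; 37 °C for 18 h; visual read; triplicate. Broth sometimes supplemented with PG, PE, PC, CL, LPS, MgCl2, CaCl2 or PAβN.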
# [2] = tested on: P. aeruginosa AUMC-Pa-4; experiment: microbe, parasite or virus in culture; conditions: strain AUMC-Pa-4; for FICI: antibiotic + D-11 (MICb/MICbc 128/4); for MICa: MIC of the antibiotic: antibiotic alone; for MICa: MIC of the antibiotic / MICac: MIC of the antibiotic in the combination: unit not given; for MICac: MIC of the antibiotic in the combination: with D-11 at MICbc 4
# Outline: as §1
# [3] = tested on: P. aeruginosa AUMC-Pa-5; experiment: microbe, parasite or virus in culture; conditions: strain AUMC-Pa-5; for FICI: antibiotic + D-11 (MICb/MICbc 64/4); for MICa: MIC of the antibiotic: antibiotic alone; for MICa: MIC of the antibiotic / MICac: MIC of the antibiotic in the combination: unit not given; for MICac: MIC of the antibiotic in the combination: with D-11 at MICbc 4
# Outline: as §1
# [4] = tested on: P. aeruginosa AUMC-Pa-6; experiment: microbe, parasite or virus in culture; conditions: strain AUMC-Pa-6; for FICI: antibiotic + D-11 (MICb/MICbc 64/4); for MICa: MIC of the antibiotic: antibiotic alone; for MICa: MIC of the antibiotic / MICac: MIC of the antibiotic in the combination: unit not given; for MICac: MIC of the antibiotic in the combination: with D-11 at MICbc 4
# Outline: as §1
# [5] = tested on: P. aeruginosa PAO1; experiment: microbe, parasite or virus in culture
# Outline: as §1
# [6] = tested on: P. aeruginosa ATCC27853; experiment: microbe, parasite or virus in culture; parameters: MICa: MIC of the antibiotic / MICac: MIC of the antibiotic in the combination: unit not given beside the values; conditions: strain ATCC27853; for FICI: antibiotic + D-11 (MICb/MICbc 32/4); for MICa: MIC of the antibiotic: antibiotic alone; for MICa: MIC of the antibiotic / MICac: MIC of the antibiotic in the combination: unit not given; for MICac: MIC of the antibiotic in the combination: with D-11 at MICbc 4
# Outline: as §1
# [7] = tested on: P. aeruginosa NR-31040; experiment: microbe, parasite or virus in culture; parameters: MICa: MIC of the antibiotic / MICac: MIC of the antibiotic in the combination: unit not given beside the values; conditions: for FICI: antibiotic + D-11 (MICb/MICbc 128/4); for MICac: MIC of the antibiotic in the combination: with D-11 at MICbc 4
# Outline: as §1
# [8] = tested on: P. aeruginosa NR-31041; experiment: microbe, parasite or virus in culture; parameters: MICa: MIC of the antibiotic / MICac: MIC of the antibiotic in the combination: unit not given beside the values; conditions: strain NR-31041; for FICI: antibiotic + D-11 (MICb/MICbc 64/4); for MICa: MIC of the antibiotic: antibiotic alone; for MICa: MIC of the antibiotic / MICac: MIC of the antibiotic in the combination: unit not given; for MICac: MIC of the antibiotic in the combination: with D-11 at MICbc 4
# Outline: as §1
# [9] = tested on: P. aeruginosa PA14; experiment: microbe, parasite or virus in culture; parameters: MICa: MIC of the antibiotic / MICac: MIC of the antibiotic in the combination: unit not given beside the values; conditions: strain PA14; for FICI: antibiotic + D-11 (MICb/MICbc 128/4); for MICa: MIC of the antibiotic: antibiotic alone; for MICa: MIC of the antibiotic / MICac: MIC of the antibiotic in the combination: unit not given; for MICac: MIC of the antibiotic in the combination: with D-11 at MICbc 4
# Outline: as §1
# [10] = tested on: P. aeruginosa PAK; experiment: microbe, parasite or virus in culture; parameters: MICa: MIC of the antibiotic / MICac: MIC of the antibiotic in the combination: unit not given beside the values; conditions: strain PAK; for FICI: antibiotic + D-11 (MICb/MICbc 64/4); for MICa: MIC of the antibiotic: antibiotic alone; for MICa: MIC of the antibiotic / MICac: MIC of the antibiotic in the combination: unit not given; for MICac: MIC of the antibiotic in the combination: with D-11 at MICbc 4
# Outline: as §1
# [11] = tested on: P. aeruginosa HM-214; parameters: MICa: MIC of the antibiotic / MICac: MIC of the antibiotic in the combination: unit not given beside the values; conditions: strain HM-214; for FICI: antibiotic + D-11 (MICb/MICbc 128/4)
# Outline: as §1
# [12] = tested on: P. aeruginosa AUMC-Pa-1; conditions: strain AUMC-Pa-1; for FICI: antibiotic + D-11 (MICb/MICbc 128/4)
# Outline: as §1
# [13] = tested on: P. aeruginosa AUMC-Pa-2; conditions: strain AUMC-Pa-2; for FICI: antibiotic + D-11 (MICb/MICbc 64/4)
# Outline: as §1
# [14] = tested on: clinical P. aeruginosa isolates; experiment: microbe, parasite or virus in culture; conditions: antibiotic alone; for MIC: Pseudomonas aeruginosa, 18 h
# Outline: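 MIC is the lowest drug concentration showing no visible growth after 18 h at 37 °C. Two-fold dilutions in MHB were combined with an equal volume of bacterial suspension (about 1 × 10^6 CFU/mL), following CLSI broth microdilution, in triplicate.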
# [15] = strain NR-31040, unit not given
# [16] = antibiotic alone, unit not given
# [17] = with D-11 at MICbc 4, unit not given
structure (smiles),measurement,setting,value
CC[C@H](C)CCCCC(=O)N[C@@H](CCN)C(=O)N[C@H](C(=O)N[C@@H](CCN)C(=O)N[C@H]1CCNC(=O)[C@H]([C@@H](C)O)NC(=O)[C@H](CCN)NC(=O)[C@H](CCN)NC(=O)[C@H](CC(C)C)NC(=O)[C@@H](CC(C)C)NC(=O)[C@H](CCN)NC1=O)[C@@H](C)O [Colistin] (X1-[Dab]T[Dab][Dab][Dab][dL]L[Dab][Dab]T; lactam 4-C (inferred); N-terminus assumed),FICI,[1],0.039
same,MICa: MIC of the antibiotic,[1],0.25
same,MICac: MIC of the antibiotic in the combination,[1],0.002
same,FICI,[2],0.531
same,MICa: MIC of the antibiotic,[2],8
same,MICac: MIC of the antibiotic in the combination,[2],4
same,FICI,[3],1.063
same,MICa: MIC of the antibiotic,[3],4/4
same,MICac: MIC of the antibiotic in the combination,[3],4/4
same,FICI,[4],0.563
same,MICa: MIC of the antibiotic,[4],4
same,MICac: MIC of the antibiotic in the combination,[4],2
same,MICa: the MIC of antibiotics,"[5]; PAO1, 18 h",0.25 µM
same,MICac: the MIC for the antibiotic in the combination,"[5]; S3 Table, PAO1, with 2 μM D-11",0.004 µM
same,MICac: the MIC for the antibiotic in the combination,"[5]; S3 Table, PAO1, with 4 μM D-11",0.001 µM
same,FICI,[6],0.375
same,MICa: MIC of the antibiotic,[6],0.25
same,MICac: MIC of the antibiotic in the combination,[6],0.063
same,FICI,[7]; strain NR-31040,0.281
same,MICa: MIC of the antibiotic,"[7]; strain NR-31040, antibiotic alone, unit not given",1
same,MICac: MIC of the antibiotic in the combination,[7]; [15],0.25
same,FICI,[8],0.127
same,MICa: MIC of the antibiotic,[8],0.125
same,MICac: MIC of the antibiotic in the combination,[8],0.008
same,FICI,[9],0.094
same,MICa: MIC of the antibiotic,[9],0.25
same,MICac: MIC of the antibiotic in the combination,[9],0.016
same,FICI,[10],0.079
same,MICa: MIC of the antibiotic,[10],0.25
same,MICac: MIC of the antibiotic in the combination,[10],0.008
same,FICI,[11],0.063
same,MICa: MIC of the antibiotic,[11]; [16],1
same,MICac: MIC of the antibiotic in the combination,[11]; [17],0.031
same,FICI,[12],0.281
same,MICa: MIC of the antibiotic,[12]; [16],0.5
same,MICac: MIC of the antibiotic in the combination,[12]; [17],0.125
same,FICI,[13],1.063
same,MICa: MIC of the antibiotic,[13]; [16],0.5/0.5
same,MICac: MIC of the antibiotic in the combination,[13]; [17],0.5/0.5
same,Antibiotic sensibility (MIC) of clinical P. aeruginosa isolate AUMC-Pa-1,[14]; strain AUMC-Pa-1,0.5 µM
same,Antibiotic sensibility (MIC) of clinical P. aeruginosa isolate AUMC-Pa-2,[14]; strain AUMC-Pa-2,0.5 µM
same,Antibiotic sensibility (MIC) of clinical P. aeruginosa isolate AUMC-Pa-3,[14]; strain AUMC-Pa-3,0.25 µM
same,Antibiotic sensibility (MIC) of clinical P. aeruginosa isolate AUMC-Pa-4,[14]; strain AUMC-Pa-4,8 µM
same,Antibiotic sensibility (MIC) of clinical P. aeruginosa isolate AUMC-Pa-5,[14]; strain AUMC-Pa-5,4 µM
same,Antibiotic sensibility (MIC) of clinical P. aeruginosa isolate AUMC-Pa-6,[14]; strain AUMC-Pa-6,4 µM
same,Antibiotic sensibility (MIC) of clinical P. aeruginosa isolate HM-214,[14]; strain HM-214,1 µM
same,Antibiotic sensibility (MIC) of clinical P. aeruginosa isolate NR-31040,[14]; strain NR-31040,1 µM
same,Antibiotic sensibility (MIC) of clinical P. aeruginosa isolate NR-31041,[14]; strain NR-31041,0.125 µM
CN(C)[C@@H]1C(O)=C(C(N)=O)C(=O)[C@@]2(O)C(O)=C3C(=O)c4c(O)c(NC(=O)CN5CCCC5)cc(F)c4C[C@H]3C[C@@H]12 [Eravacycline],FICI,[1],0.156
same,MICa: MIC of the antibiotic,[1],8
same,MICac: MIC of the antibiotic in the combination,[1],1
same,FICI,[2],0.156
same,MICa: MIC of the antibiotic,[2],16
same,MICac: MIC of the antibiotic in the combination,[2],2
same,FICI,[3],1.063
same,MICa: MIC of the antibiotic,[3],8/8
same,MICac: MIC of the antibiotic in the combination,[3],8/8
same,FICI,[4],0.313
same,MICa: MIC of the antibiotic,[4],8
same,MICac: MIC of the antibiotic in the combination,[4],2
same,MIC,"[5]; Pseudomonas aeruginosa, PAO1, 18 h, read-out: MICa: the MIC of antibiotics, S3 Table, antibiotic alone, PAO1",4 µM
same,FICI,"[5]; S3 Table, PAO1, antibiotic + 2 μM D-11",0.094
same,MICac: the MIC for the antibiotic in the combination,"[5]; S3 Table, PAO1, with 2 μM D-11",0.125 µM
same,MICac: the MIC for the antibiotic in the combination,"[5]; S3 Table, PAO1, with 4 μM D-11",0.0625 µM
same,FICI,[6],0.250
same,MICa: MIC of the antibiotic,[6],8
same,MICac: MIC of the antibiotic in the combination,[6],1
same,MIC,"[7]; Pseudomonas aeruginosa, NR31040, 18 h, read-out: MICa: MIC of the antibiotic",8 µM
same,FICI,[7]; strain NR-31040,0.094
same,MICac: MIC of the antibiotic in the combination,[7]; [15],0.5
same,FICI,[8],0.188
same,MICa: MIC of the antibiotic,[8],8
same,MICac: MIC of the antibiotic in the combination,[8],1
same,FICI,[9],0.156
same,MICa: MIC of the antibiotic,[9],8
same,MICac: MIC of the antibiotic in the combination,[9],1
same,FICI,[10],0.188
same,MICa: MIC of the antibiotic,[10],8
same,MICac: MIC of the antibiotic in the combination,[10],1
same,FICI,[11],0.281
same,FICI,[12],0.156
same,FICI,[13],0.313
same,MIC,"[14]; read-out: Antibiotic sensibility (MIC) of clinical P. aeruginosa isolate AUMC-Pa-1, strain AUMC-Pa-1",16 µM
same,MIC,"[14]; read-out: Antibiotic sensibility (MIC) of clinical P. aeruginosa isolate AUMC-Pa-2, strain AUMC-Pa-2",8 µM
same,MIC,"[14]; read-out: Antibiotic sensibility (MIC) of clinical P. aeruginosa isolate AUMC-Pa-3, strain AUMC-Pa-3",8 µM
same,MIC,"[14]; read-out: Antibiotic sensibility (MIC) of clinical P. aeruginosa isolate AUMC-Pa-4, strain AUMC-Pa-4",16 µM
same,MIC,"[14]; read-out: Antibiotic sensibility (MIC) of clinical P. aeruginosa isolate AUMC-Pa-5, strain AUMC-Pa-5",8 µM
same,MIC,"[14]; read-out: Antibiotic sensibility (MIC) of clinical P. aeruginosa isolate AUMC-Pa-6, strain AUMC-Pa-6",8 µM
same,MIC,"[14]; read-out: Antibiotic sensibility (MIC) of clinical P. aeruginosa isolate HM-214, strain HM-214",8 µM
same,MIC,"[14]; read-out: Antibiotic sensibility (MIC) of clinical P. aeruginosa isolate NR-31040, strain NR-31040",8 µM
same,MIC,"[14]; read-out: Antibiotic sensibility (MIC) of clinical P. aeruginosa isolate NR-31041, strain NR-31041",8 µM
